Source: ChEMBL document CHEMBL1136813, “Bivalent biogenic amine reuptake inhibitors” (Bioorg Med Chem Lett, 2003)

What was measured:
[1] = molecular target: T1, Sodium-dependent dopamine transporter (Homo sapiens, UniProt Q01959); test: Compound was tested for inhibition of [125I]RTI-55 binding to dopamine transporter in HEK cells; format: cell-based, HEK293
[2] = molecular target: T1, Sodium-dependent dopamine transporter; test: Compound was tested for inhibition of [3H]DA binding to dopamine (DAT) transporter in HEK cells; format: cell-based, HEK293
[3] = molecular target: T2, Sodium-dependent noradrenaline transporter (Homo sapiens, UniProt P23975); test: Compound was tested for inhibition of [3H]NE binding to norepinephrine transporter HEK cells; format: cell-based, HEK293
[4] = molecular target: T3, Sodium-dependent serotonin transporter (Homo sapiens, UniProt P31645); test: Compound was tested for inhibition of [125I]RTI-55 binding to Serotonin transporter in HEK cells; format: cell-based, HEK293
Target sequence in this assay (P31645 whole entry): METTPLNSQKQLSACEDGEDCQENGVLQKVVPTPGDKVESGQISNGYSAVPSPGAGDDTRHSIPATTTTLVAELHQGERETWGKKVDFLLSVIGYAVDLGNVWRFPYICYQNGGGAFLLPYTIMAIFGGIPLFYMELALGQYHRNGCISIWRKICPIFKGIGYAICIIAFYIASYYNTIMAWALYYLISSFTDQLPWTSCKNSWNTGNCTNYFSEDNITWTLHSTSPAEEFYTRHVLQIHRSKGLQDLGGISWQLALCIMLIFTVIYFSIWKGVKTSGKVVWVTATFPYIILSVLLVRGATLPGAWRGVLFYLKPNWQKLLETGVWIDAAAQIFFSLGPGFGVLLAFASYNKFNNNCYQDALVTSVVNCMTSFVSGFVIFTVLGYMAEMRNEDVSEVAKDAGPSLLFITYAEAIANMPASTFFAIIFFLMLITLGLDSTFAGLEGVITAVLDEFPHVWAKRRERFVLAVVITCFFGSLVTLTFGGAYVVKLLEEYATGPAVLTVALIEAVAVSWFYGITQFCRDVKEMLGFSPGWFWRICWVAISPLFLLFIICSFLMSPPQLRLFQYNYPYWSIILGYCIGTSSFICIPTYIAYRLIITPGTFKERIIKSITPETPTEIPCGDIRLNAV

[5] = molecular target: T3, Sodium-dependent serotonin transporter; test: Compound was tested for inhibition of [3H]5-HT binding to Serotonin transporter in HEK cells; format: cell-based, HEK293
Target sequence in this assay (P31645 whole entry): as above

[6] = molecular target: T1, Sodium-dependent dopamine transporter; test: Ratio of uptake inhibition to binding affinity to human DAT (IC50/Ki)
[7] = molecular target: T3, Sodium-dependent serotonin transporter; test: Ratio of uptake inhibition to binding affinity to human SERT (IC50/Ki)
Target sequence in this assay (P31645 whole entry, looked up): as the sequence (P31645 whole entry) above

[8] = molecular target: T2, Sodium-dependent noradrenaline transporter; test: Compound was tested for inhibition of [125I]-RTI-55 binding to norepinephrine transporter HEK cells; format: cell-based, HEK293
[9] = molecular target: T2, Sodium-dependent noradrenaline transporter; test: Ratio of uptake inhibition to binding affinity to human NET (IC50/Ki)

T2 sequence (P23975 whole entry): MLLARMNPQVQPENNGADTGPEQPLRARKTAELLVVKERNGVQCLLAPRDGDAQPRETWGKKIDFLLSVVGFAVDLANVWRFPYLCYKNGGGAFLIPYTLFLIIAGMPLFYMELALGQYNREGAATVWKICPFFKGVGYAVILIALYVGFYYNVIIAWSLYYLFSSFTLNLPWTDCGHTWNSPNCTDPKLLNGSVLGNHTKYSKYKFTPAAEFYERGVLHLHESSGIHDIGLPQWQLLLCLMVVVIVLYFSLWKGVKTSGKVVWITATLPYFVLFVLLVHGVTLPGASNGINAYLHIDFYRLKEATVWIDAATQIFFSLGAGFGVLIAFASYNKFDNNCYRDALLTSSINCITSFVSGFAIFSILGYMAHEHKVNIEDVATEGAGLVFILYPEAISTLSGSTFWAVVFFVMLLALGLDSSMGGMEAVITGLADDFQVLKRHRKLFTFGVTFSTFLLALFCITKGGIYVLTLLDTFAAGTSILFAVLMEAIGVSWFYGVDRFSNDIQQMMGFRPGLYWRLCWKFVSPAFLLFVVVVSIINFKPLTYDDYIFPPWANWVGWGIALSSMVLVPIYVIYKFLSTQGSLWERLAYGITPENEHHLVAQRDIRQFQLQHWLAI
T1 sequence (Q01959 whole entry): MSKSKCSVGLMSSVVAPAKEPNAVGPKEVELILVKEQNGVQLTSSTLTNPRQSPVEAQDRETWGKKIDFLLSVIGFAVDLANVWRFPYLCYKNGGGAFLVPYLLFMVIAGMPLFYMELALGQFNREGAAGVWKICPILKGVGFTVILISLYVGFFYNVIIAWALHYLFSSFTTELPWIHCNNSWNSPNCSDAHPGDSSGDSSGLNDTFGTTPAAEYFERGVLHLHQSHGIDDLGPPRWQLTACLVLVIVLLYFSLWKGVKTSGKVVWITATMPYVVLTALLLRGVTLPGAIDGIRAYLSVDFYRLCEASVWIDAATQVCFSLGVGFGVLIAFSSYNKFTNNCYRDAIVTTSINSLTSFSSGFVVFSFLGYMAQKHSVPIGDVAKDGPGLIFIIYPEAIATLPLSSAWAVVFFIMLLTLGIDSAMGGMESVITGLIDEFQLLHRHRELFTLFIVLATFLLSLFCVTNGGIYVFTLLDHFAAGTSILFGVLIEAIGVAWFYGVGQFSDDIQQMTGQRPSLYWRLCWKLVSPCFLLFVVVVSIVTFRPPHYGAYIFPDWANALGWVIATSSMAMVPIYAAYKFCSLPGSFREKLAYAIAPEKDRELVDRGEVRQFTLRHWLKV

| SMILES | Ki [1] [nM] | IC50 [2] [nM] | IC50 [3] [nM] | Ki [4] [nM] | IC50 [5] [nM] | Ratio [6] | Ratio [7] | Ki [8] [nM] | Ratio [9] |
| --- | --- | --- | --- | --- | --- | --- | --- | --- | --- |
| COC(=O)C1C(c2ccc(Cl)cc2)CC2CCC1N2C (configuration not stated) | 1.1 | 1.7 |  |  |  |  |  |  |  |
| CN1C2CCC1C(C(=O)NCCCNC(=O)C1C(c3ccc(Cl)cc3)CC3CCC1N3C)C(c1ccc(Cl)cc1)C2 (configuration not stated) | 65.1 | 52.2 | 266 | 357 | 441 | 0.8 | 1.17 | 2970 | 0.09 |
| CN1C2CCC1C(C(=O)NCCCCCCNC(=O)C1C(c3ccc(Cl)cc3)CC3CCC1N3C)C(c1ccc(Cl)cc1)C2 (configuration not stated) | 18.4 | 1400 | 1850 | 102 | 225 | 76.3 | 2.2 | 330 | 5.59 |
| CN1C2CCC1C(C(=O)NCCCCCCCCNC(=O)C1C(c3ccc(Cl)cc3)CC3CCC1N3C)C(c1ccc(Cl)cc1)C2 (configuration not stated) | 6.7 | 871 | 487 | 7.9 | 99 | 130 | 12.5 | 830 |  |
| CN1C2CCC1C(C(=O)NCCCCNC(=O)C1C(c3ccc(Cl)cc3)CC3CCC1N3C)C(c1ccc(Cl)cc1)C2 (configuration not stated) | 21.7 | 1670 | 2260 | 3140 | 176 | 76.8 | 0.06 | 2070 | 1.09 |
